# Results reported in patent publication US20120053165A1, “Novel Phenyl Imidazoles and Phenyl Triazoles As Gamma-Secretase Modulators” (Pfizer Inc., priority 2009, published 2012).
# Where a name gives a salt, the structure may show the parent alone.
# Test system: production of amyloid beta protein Aβ(1-42) in human WT-APP overexpressing CHO cells
# Settings: Homo sapiens, CHO, read-out: Aβ 42 IC50
# 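Also: Aβ(1-42) released into conditioned medium captured by ELISA after roughly 24 h compound exposure, vehicle and inhibitor controls defining maximal and minimal inhibition.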
row,Compound,IC50 [nM]
1,"COc1cc(C(=O)NC2COc3ccc(Cl)cc32)ccc1-n1cnc(C)c1 (single isomer, unassigned) [Example 128, N-(5-chloro-2,3-dihydro-1-benzofuran-3-yl)-3-methoxy-4-(4-methyl-1H-imidazol-1-yl)benzamide]",521

# Same assay, conditions: Homo sapiens, CHO, read-out: Aβ 42 IC50, Geometric mean of 2-8 determinations; human WT-APP overexpressing CHO cells
row,Compound,IC50 [nM]
1,"COc1cc(C(=O)NC2COc3c(F)cc(Cl)cc32)ccc1-n1cnc(C)c1 (single isomer, unassigned) [Example 127, N-(5-chloro-7-fluoro-2,3-dihydro-1-benzofuran-3-yl)-3-methoxy-4-(4-methyl-1H-imidazol-1-yl)benzamide trifluoroacetate salt]",521
2,"COc1cc(C(=O)NCc2csc3ccc(Cl)cc23)ccc1-n1cnc(C)c1 [Example 9, N-[(5-chloro-1-benzothien-3-yl)methyl]-3-methoxy-4-(4-methyl-1H-imidazol-1-yl)benzamide]",158
3,"COc1cc(C(=O)Nc2[nH]nc(C)c2-c2cccc(C(F)(F)F)c2)ccc1-n1cnc(C)c1 [Example 10, 3-methoxy-4-(4-methyl-1H-imidazol-1-yl)-N-{3-methyl-4-[3-(trifluoro-methyl)phenyl]-1H-pyrazol-5-yl}benzamide]",245
4,"COc1cc(C(=O)N2CC[C@@H](Oc3ccccc3C(F)(F)F)C2)ccc1-n1cnc(C)c1 [Example 11, 1-[2-methoxy-4-({(3R)-3-[2-(trifluoromethyl)phenoxy]pyrrolidin-1-yl}carbonyl)phenyl]-4-methyl-1H-imidazole]",96
5,"COc1cc(C(=O)NCc2cc3cc(Cl)ccc3[nH]2)ccc1-n1cnc(C)c1 [Example 15, N-[(5-chloro-1H-indol-2-yl)methyl]-3-methoxy-4-(4-methyl-1H-imidazol-1-yl)benzamide]",547
6,"COc1cc(C(=O)N2CC(c3cccc(Cl)c3)C2)ccc1-n1cnc(C)c1 [Example 18, 1-(4-{[3-(3-chlorophenyl)azetidin-1-yl]carbonyl}-2-methoxy-phenyl)-4-methyl-1H-imidazole]",660
7,"COc1cc(C(=O)N2CCCC[C@H]2c2ccc(C(F)(F)F)cc2)ccc1-n1cnc(C)c1 [Example 23, (2S)-1-[3-methoxy-4-(4-methyl-1H-imidazol-1-yl)benzoyl]-2-[4-(trifluoro-methyl)phenyl] piperidine]",838
8,"COc1cc(C(=O)N2CC[C@H](Oc3ccccc3C(F)(F)F)C2)ccc1-n1cnc(C)c1 [Example 34, 1-[2-methoxy-4-({(3S)-3-[2-(trifluoro-methyl)phenoxy]pyrrolidin-1-yl}carbonyl)phenyl]-4-methyl-1H-imidazole, formic acid salt]",297

# Same assay, conditions: Homo sapiens, CHO, read-out: GM Aβ 42B IC50, Geometric Mean of 2-8 Determinations; human WT-APP overexpressing CHO cells
row,Compound,IC50 [nM]
1,"COc1cc(C(=O)NCCc2cccc(C#N)c2)ccc1-n1cnc(C)c1 [Example 1, N-[2-(3-cyanophenyl)ethyl]-3-methoxy-4-(4-methyl-1H-imidazol-1-yl)benzamide]",2920
2,"COc1cc(C(=O)NCC(C)(O)c2ccc(Cl)cc2)ccc1-n1cnc(C)c1 (stereo not drawn) [Example 2, N-[2-(4-chlorophenyl)-2-hydroxypropyl]-3-methoxy-4-(4-methyl-1H-imidazol-1-yl)benzamide]",942
3,"C#CCOc1cc(C(=O)NCCc2cccc(Cl)c2)ccc1-n1cnc(C)c1 [Example 3, N-[2-(3-chlorophenyl)ethyl]-4-(4-methyl-1H-imidazol-1-yl)-3-(prop-2-yn-1-yloxy)benzamide]",341
4,"COc1cc(C(=O)NCc2cc(-c3cccc(Cl)c3)no2)ccc1-n1cnc(C)c1 [Example 4, N-{[3-(3-chlorophenyl)isoxazol-5-yl]methyl}-3-methoxy-4-(4-methyl-1H-imidazol-1-yl)benzamide]",330
5,"COc1cc(C(=O)NCc2nnc(-c3cccc(Cl)c3)o2)ccc1-n1cnc(C)c1 [Example 5, N-{[5-(3-chlorophenyl)-1,3,4-oxadiazol-2-yl]methyl}-3-methoxy-4-(4-methyl-1H-imidazol-1-yl)benzamide]",1460
6,"COc1cc(C(=O)NCCc2cccc(Cl)c2)ccc1-n1cnc(C)n1 [Example 6, N-[2-(3-chlorophenyl)ethyl]-3-methoxy-4-(3-methyl-[1,2,4]triazol-1-yl)benzamide]",4210
7,"Cc1cn(-c2ccc(C(=O)NCC3(c4cccc(C(F)(F)F)c4)CCOCC3)cc2F)cn1 [Example 7, 3-fluoro-4-(4-methyl-1H-imidazol-1-yl)-N-({4-[3-(trifluoromethyl)phenyl]tetrahydro-2H-pyran-4-yl}methyl)benzamide, formic acid salt]",2190
8,"Cc1cn(-c2ccc(C(=O)NCCc3cccc(Cl)c3)cc2F)cn1 [Example 8, N-[2-(3-chlorophenyl)ethyl]-3-fluoro-4-(4-methyl-1H-imidazol-1-yl)benzamide]",960

# Same assay, conditions: read-out: Aβ 42 IC50; Geometric mean of 2-8 determinations; human WT-APP overexpressing CHO cells
row,Compound,IC50 [nM]
1,"COc1cc(C(=O)NCc2cccc(C(F)(F)F)c2)ccc1-n1cnc(C)c1 [Example 14, 3-methoxy-4-(4-methyl-1H-imidazol-1-yl)-N-[3-(trifluoro-methyl)benzyl] benzamide]",447
2,"COc1cc(C(=O)NCc2cnc(-c3ccccc3)s2)ccc1-n1cnc(C)c1 [Example 16, 3-methoxy-4-(4-methyl-1H-imidazol-1-yl)-N-[(2-phenyl-1,3-thiazol-5-yl)methyl] benzamide]",283
3,"COc1cc(C(=O)NCc2noc3ccc(Cl)cc23)ccc1-n1cnc(C)c1 [Example 17, N-[(5-chloro-1,2-benz-isoxazol-3-yl)methyl]-3-methoxy-4-(4-methyl-1H-imidazol-1-yl) benzamide]",371
4,"COc1cc(C(=O)NCC2(c3cccc(C(F)(F)F)c3)CCOCC2)ccc1-n1cnc(C)c1 [Example 19, 3-methoxy-4-(4-methyl-1H-imidazol-1-yl)-N-({4-[3-(tri-fluoromethyl)phenyl]tetrahydro-2H-pyran-4-yl}methyl) benzamide]",757
5,"COc1cc(C(=O)N(C)Cc2cccc(C(F)(F)F)c2)ccc1-n1cnc(C)c1 [Example 20, 3-methoxy-N-methyl-4-(4-methyl-1H-imidazol-1-yl)-N-[3-(trifluoro-methyl)benzyl] benzamide]",997
6,"COc1cc(C(=O)NCCc2cccc(Cl)c2)ccc1-n1cnc(C)c1 [Example 21, N-[2-(3-chloro-phenyl)ethyl]-3-methoxy-4-(4-methyl-1H-imidazol-1-yl) benzamide]",629
7,"COc1cc(C(=O)N(C)Cc2ccc3ccccc3c2)ccc1-n1cnc(C)c1 [Example 22, 3-methoxy-N-methyl-4-(4-methyl-1H-imidazol-1-yl)-N-(2-naphthyl-methyl) benzamide]",977
8,"COc1cc(C(=O)NCCc2cccc(C(F)(F)F)c2)ccc1-n1cnc(C)c1 [Example 24, 3-methoxy-4-(4-methyl-1H-imidazol-1-yl)-N-{2-[3-(tri-fluoromethyl)phenyl]ethyl} benzamide]",438
9,"COc1cc(C(=O)NCCc2c[nH]c3ccc(Cl)cc23)ccc1-n1cnc(C)c1 [Example 25, N-[2-(5-chloro-1H-indol-3-yl)ethyl]-3-methoxy-4-(4-methyl-1H-imidazol-1-yl) benzamide]",195
10,"COc1cc(C(=O)NC(C)(C)c2ccc(F)c(F)c2)ccc1-n1cnc(C)c1 [Example 26, N-[1-(3,4-difluoro-phenyl)-1-methylethyl]-3-methoxy-4-(4-methyl-1H-imidazol-1-yl) benzamide]",787
11,"COc1cc(C(=O)NCC2(c3ccccc3)CCCC2)ccc1-n1cnc(C)c1 [Example 27, 3-methoxy-4-(4-methyl-1H-imidazol-1-yl)-N-[(1-phenyl-cyclopentyl)methyl] benzamide]",175
12,"COc1cc(C(=O)NCC2(c3ccc(C(F)(F)F)cc3)CCOCC2)ccc1-n1cnc(C)c1 [Example 28, 3-methoxy-4-(4-methyl-1H-imidazol-1-yl)-N-({4-[4-(tri-fluoromethyl)phenyl]tetrahydro-2H-pyran-4-yl}methyl) benzamide]",188
13,"COc1cc(C(=O)NC(CCC(C)C)c2ccc(C(F)(F)F)cc2)ccc1-n1cnc(C)c1 (stereo not drawn) [Example 29, 3-methoxy-4-(4-methyl-1H-imidazol-1-yl)-N-{4-methyl-1-[4-(trifluoro-methyl)phenyl]pentyl} benzamide]",861
14,"COc1cc(C(=O)NCC2(c3ccc(Cl)cc3)CC2)ccc1-n1cnc(C)c1 [Example 30, N-{[1-(4-chlorophenyl)cyclopropyl]methyl}-3-methoxy-4-(4-methyl-1H-imidazol-1-yl) benzamide]",231
15,"COc1cc(C(=O)NCC2(c3cccc(C(F)(F)F)c3)CCC2)ccc1-n1cnc(C)c1 [Example 31, 3-methoxy-4-(4-methyl-1H-imidazol-1-yl)-N-({1-[3-(tri-fluoromethyl)phenyl]cyclobutyl}methyl) benzamide]",298
16,"COc1cc(C(=O)NC(C)(C)c2cccc(C(F)(F)F)c2)ccc1-n1cnc(C)c1 [Example 32, 3-methoxy-4-(4-methyl-1H-imidazol-1-yl)-N-{1-methyl-1-[3-(trifluoro-methyl)phenyl]ethyl} benzamide]",619
17,"COc1cc(C(=O)NCC2(c3ccc(C(F)(F)F)cc3)CCCC2)ccc1-n1cnc(C)c1 [Example 33, 3-methoxy-4-(4-methyl-1H-imidazol-1-yl)-N-({1-[4-(trifluoro-methyl)phenyl]cyclopentyl}methyl) benzamide, formic acid salt]",139

# Same assay, conditions: read-out: Aβ 42 IC50; Geometric mean of 26 determinations; human WT-APP overexpressing CHO cells
row,Compound,IC50 [nM]
1,"COc1cc(C(=O)NCC2(c3ccc(F)cc3)CCC2)ccc1-n1cnc(C)c1 [Example 13, N-{[1-(4-fluorophenyl)cyclobutyl]methyl}-3-methoxy-4-(4-methyl-1H-imidazol-1-yl) benzamide]",261

# Same assay, conditions: read-out: Aβ 42 IC50; Geometric mean of at least 2 determinations; human WT-APP overexpressing CHO cells
row,Compound,IC50 [nM]
1,1-[4-({3-[(chloro- 5-methylphenoxy) methyl]azetidin- 1-yl}carbonyl)-2- methoxyphenyl]- 4-methyl-1H- imidazole trifluoroacetate salt [Example 139],557
